Test results from patent US10881678B2, “Cytotoxic agents for the treatment of cancer” (CytRx Corporation, priority 2013, dated 2021).
“Also recorded” adds a separate entry of the source.

Legend:
U87-luc glioma cells [1] = test: Intracranial U87-luc glioblastoma xenograft in mice, Example 1 (bioluminescent imaging, survival); type: in vivo; conditions: for difference in tumor growth between 8 days and 22 days within the group: aldoxorubicin p>0.05, doxorubicin p<0.05; for survival time compared with vehicle-treated mice (Kaplan-Meier): result in words, aldoxorubicin also vs doxorubicin-treated group
Experimental: Intracranial implantation of U87-luc glioma cells in mice: A U87MG subline, U87-luc with a luciferase reporter gene was used for establishing intracranial human glioblastoma tumors. Female BALB/c (nu/nu) mice, 6-8 weeks of age, were anesthetized with a ketamine/xylazine cocktail solution. Animals were secured in a Harvard Apparatus stereotaxic head frame, a 1 cm midline scalp incision was made, and 5×10^5 cells in 5 μL serum-free DMEM were injected into the left striatum (coordinates: 2.5 mm lateral and 0.5 mm posterior to the bregma) through a burr hole in the skull using a 10 μl Hamilton syringe to deliver tumor cells to a 3.5 mm intraparenchymal depth. The burr hole in the skull was sealed with bone wax and the incision closed using wound glue. Tumor growth was evaluated by bioluminescent imaging.
Aldoxorubicin treatment of mice: The study consisted of 8 vehicle-treated control mice (group C), 8 doxorubicin-treated mice (group D), and 8 aldoxorubicin-treated mice (group A). Treatment was initiated twelve days after intracranial implantation of glioblastoma multiforme (GBM) cells. Vehicle (10 mM sodium phosphate, 5% D-(+)-glucose, pH 6.4) or aldoxorubicin was administered intravenously for a total of six injections (i.e., 12, 19, 26, 42, 50, and 56, days after cell implantation). All the doses were ˜75% of the maximum tolerated dose (MTD) of 32 mg/kg/inj in mice except that the dose given after 50 days of cell implantation was 50% of the MTD. Doxorubicin was administered intravenously for a total of two injections (i.e., 12 and 19 days after cell implantation) with ˜75% of the MTD of 8 mg/kg/inj. Both the drugs and the vehicle were administered using an injection volume of 0.15 ml.
In vivo imaging of intracranial tumors: Intracranial tumor growth was quantified by bioluminescent imaging using an in vivo imaging system (Xenogen, Palo Alto, Calif.). All mice were given an IP injection of 100 μl of 30 mg/ml D-luciferin (PerkinElmer) suspended in DPBS 10 minutes before imaging to provide a substrate for the luciferase enzyme. Prior to imaging, mice were anesthetized with inhalation of isoflurane gas. Images were captured using the Xenogen Ivis 200 imaging system and quantified with Living Image 4.1 software from Xenogen for a region of interest that encompassed the head of the mouse. Image intensities were expressed as photons/sec/cm^2/sr.
Statistical Analysis: The log-rank test was used to create Kaplan-Meier survival curves to compare survival between control and drug-treated mice using the Statistical Analysis Software of SAS Institute, Inc., Cary, N.C. Differences between groups were assessed using the unpaired Student's t test. AR values are shown as the mean±standard deviation. A p value≤0.05 was considered statistically significant.

U87-luc glioma cells [2] = test: Intracranial U87-luc glioblastoma xenograft in mice, Example 2 (bioluminescent imaging, survival); type: in vivo
Experimental: Female mice (6-8 weeks of age) were implanted intracranially with U87-luc subline with luciferase reporter gene to establish human glioblastoma tumors. Tumor growth was evaluated by bioluminescent imaging using D-luciferin substrate. 8 mice were treated with aldoxorubicin and 8 were treated with phosphate buffer saline (vehicle). Treatment started 9 days after implantation of the GBM cells. Aldoxorubicin or vehicle was administered i.v. once a week for three weeks (9, 16, and 23 days after cell implantation). The first two doses of aldoxorubicin were 75% and the third dose was 50% of the MTD of 32 mg/kg/injection in mice.

[3] = Plasma and tissue distribution by HPLC in intracranial tumor-bearing mice; type: in vivo
Experimental: (§1) HPLC System and Conditions: An Agilent 1100 Series HPLC System (Wilmington, Del., USA) having a scanning fluorescent detector with excitation and emission wavelengths set at 480 and 560 nm, respectively, was used. Agilent Chemstation software was used for data acquisition. Separation was achieved on a Waters Spherisorb ODS2 column (4 mm×250 mm, 5 μm) fitted with a guard cartridge (BDS-Hypersil-C18, 5 μM). Elution was performed with mobile phase containing 65% monosodium phosphate, pH 2.2, and 35% acetonitrile. A constant flow rate of 1.25 ml/min was used for the separation. The column was set to 28° C. and the injection volume was 25 μl.
Sample preparation: Aldoxorubicin, 24 mg/kg/inj (75% of the MTD), was administered in intracranial GBM tumor-bearing mice through tail vein injection, and after 4, 8, 16, and 24 h after injection, mice (3 animals at each time point) were euthanized by CO2 gas. Blood samples were collected by heart puncture in heparinized tubes, and centrifuged for plasma separation. Immediately after blood sampling, organs (brain, heart, kidney liver and lung) were surgically removed. The plasma and tissues were stored at −80° C. until analysis.
Frozen samples were thawed at room temperature and homogenized in sterile saline using a PowerGen Model 125 homogenizer (Fisher Scientific) to obtain final tissue concentrations (w/v) of 150 mg/ml for the liver and brain; 125 mg/ml for the lung, heart and muscle; and 100 mg/ml for kidney. Perchloric acid (35%, v/v) was added to a 20 μl aliquot of plasma or tissue samples followed by 25 μl of mobile phase. The samples were vortexed followed by centrifugation at 10,000×g for 10 min. and 25 μl of the supernatant was applied to the HPLC column.

[4] = Aldoxorubicin retention in brain tumors and surrounding brain tissue by HPLC; type: in vivo, mice; conditions: i.v. 24 mg/kg, 6 and 24 h after injection
Experimental: as §1, with “The HPLC system used was an” for “An”, “Series” for “Series HPLC System”, “equipped with” for “having”, “respectively.” for “respectively, was used.”, “comprised of” for “containing”, “65% 50 mM” for “65%”
Sample preparation: For quantification of aldoxorubicin in brain tissue and brain tumors, mice were euthanized by CO2 inhalation 6 and 24 h after aldoxorubicin injection (24 mg/kg/inj), brains were harvested and tumors were resected. The harvested tissues were stored at −80° C. until analysis.
Frozen samples were thawed at room temperature and homogenized in sterile saline using a PowerGen Model 125 homogenizer (Fisher Scientific) to obtain final tissue concentrations (w/v) of 150 mg/ml. Perchloric acid (35%, v/v) was then added to a […] aliquot followed by 25 μl of mobile phase. […] In the tissue samples analyzed, aldoxorubicin eluted with the retention time of doxorubicin.

[5] = Aldoxorubicin/doxorubicin detection in brain tumors by stereomicroscope epifluorescence; type: in vivo, mice; conditions: 24 h following the last injection; epifluorescence of whole brains
Experimental: Aldoxorubicin/doxorubicin detection in brain tumors: Tumor-bearing mice were given intravenous injections of aldoxorubicin or doxorubicin as described above in Example 1. Mice were euthanized 24 h following the last injection. Brains were harvested and imaged using an MVX10 stereomicroscope (Olympus of America) equipped for brightfield and epifluorescence with filters encompassing doxorubicin-specific wavelengths to visualize drug accumulation.

[6] = Maximum tolerated dose in mice; type: in vivo; conditions: intravenous
[7] = Drug detection in cryosections of brain tissues of tumor-bearing mice (immunohistochemistry, confocal); conditions: drug fluorescence
Experimental: Immunohistochemistry: For histologic analysis, brain tissues from control and drug-treated tumor-bearing mice were harvested, snap frozen in optimal cutting temperature (OCT) compound and stored at −80° C. Cryostat sections were placed on slides and fixed in zinc-buffered formalin. Slides were blocked with 5% goat serum in 1% BSA followed by overnight incubation with primary antibodies against CD31 (102402, Biolegend, San Diego, Calif.), Ki-67 (ab156956, Abcam, Cambridge, Mass.), Vimentin (ab92547, Abcam), cleaved-Caspase-3 (CP229B, Biocare Medical), and GFAP (NB300-141, Novus Biologicals, Littleton, Colo.). Slides were then incubated with primary antibody source-specific secondary antibodies conjugated to Alexa Fluor 488 or 635 and DAN as a nuclear counterstain. The detection fluorophores used were limited to those around the inherent fluorescence spectra of doxorubicin (λex=480 nm, λem=550-590 nm) (22876313) to avoid bleed-through and enable co-detection of the drug with respect to certain antigens. Epifluorescence photomicrographs were captured at 100× and 400× magnification using an FV1000 confocal microscope (Olympus of America, Center Valley, Pa.) equipped with multi-Argon, 405, 559, and 635 diodes. Quantitative analysis was performed with Slidebook software (Intelligent Imaging Innovations, Denver, Colo.).

[8] = literature; cited from earlier work
[9] = target: P-glycoprotein efflux pumps (Homo sapiens, UniProt P08183); conditions: literature; cited from earlier work
Chain of P-glycoprotein efflux pumps (P08183 whole entry): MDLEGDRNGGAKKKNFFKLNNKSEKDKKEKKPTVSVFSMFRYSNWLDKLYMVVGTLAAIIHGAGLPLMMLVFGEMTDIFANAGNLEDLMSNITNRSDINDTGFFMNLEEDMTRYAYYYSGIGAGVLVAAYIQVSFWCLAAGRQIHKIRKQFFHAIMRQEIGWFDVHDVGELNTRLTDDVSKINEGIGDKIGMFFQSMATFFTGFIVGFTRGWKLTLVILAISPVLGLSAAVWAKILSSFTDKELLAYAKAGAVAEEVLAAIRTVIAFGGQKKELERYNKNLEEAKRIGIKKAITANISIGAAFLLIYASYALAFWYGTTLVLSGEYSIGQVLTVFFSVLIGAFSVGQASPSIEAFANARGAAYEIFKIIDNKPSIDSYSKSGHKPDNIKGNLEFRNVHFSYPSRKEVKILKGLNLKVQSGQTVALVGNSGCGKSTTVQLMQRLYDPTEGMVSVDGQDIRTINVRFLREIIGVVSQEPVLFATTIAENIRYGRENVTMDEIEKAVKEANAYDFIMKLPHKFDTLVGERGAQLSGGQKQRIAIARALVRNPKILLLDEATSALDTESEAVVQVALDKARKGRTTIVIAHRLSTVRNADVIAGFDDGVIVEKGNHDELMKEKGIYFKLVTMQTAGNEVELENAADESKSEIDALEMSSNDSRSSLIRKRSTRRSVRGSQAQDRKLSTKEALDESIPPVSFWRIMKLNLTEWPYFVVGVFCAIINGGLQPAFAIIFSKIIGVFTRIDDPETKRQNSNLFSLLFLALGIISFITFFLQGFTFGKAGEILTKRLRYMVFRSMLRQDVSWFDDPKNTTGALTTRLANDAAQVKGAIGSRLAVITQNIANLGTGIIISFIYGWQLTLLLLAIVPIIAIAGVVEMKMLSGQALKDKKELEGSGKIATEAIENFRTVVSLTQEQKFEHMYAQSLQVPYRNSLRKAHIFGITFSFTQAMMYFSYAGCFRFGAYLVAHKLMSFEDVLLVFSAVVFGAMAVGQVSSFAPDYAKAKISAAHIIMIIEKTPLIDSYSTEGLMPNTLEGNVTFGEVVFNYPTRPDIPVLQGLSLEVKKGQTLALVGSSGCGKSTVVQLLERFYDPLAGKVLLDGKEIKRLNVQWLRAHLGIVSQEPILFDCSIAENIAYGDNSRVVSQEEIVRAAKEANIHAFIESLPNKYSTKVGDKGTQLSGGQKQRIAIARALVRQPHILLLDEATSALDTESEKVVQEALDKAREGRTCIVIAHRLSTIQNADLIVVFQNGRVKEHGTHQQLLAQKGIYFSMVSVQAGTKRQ

[10] = system: glioblastoma growing in the brain; conditions: literature; cited from earlier work
Glioblastoma cell lines = conditions: literature; cited from earlier work
[11] = 22 days after implantation, aldoxorubicin treatment for 2 weeks, radiance
[12] = administered intravenously, intracranial human GBM tumors
[13] = i.v. 24 mg/kg (~75% of the MTD)

COc1cccc2c1C(=O)c1c(O)c3c(c(O)c1C2=O)C[C@@](O)(/C(CO)=N/NC(=O)CCCCCN1C(=O)C=CC1=O)C[C@@H]3OC1CC(N)C(O)C(C)O1.Cl (some centres unmarked) [aldoxorubicin]
average tumor size relative to the control group (U87-luc glioma cells [1]; [11]): 28%
average tumor size relative to the doxorubicin treatment group (U87-luc glioma cells [1]; [11]): 40%
survival of animals 34 days after tumor implantation (U87-luc glioma cells [1]; 34 days, group of 8 mice): remained alive
overall antitumor result (U87-luc glioma cells [1]; [12]): induces tumor regression and significantly increases survival
animals still alive (U87-luc glioma cells [1]; after 41 days): seven of the eight
difference in tumor growth between 8 days and 22 days within the group (U87-luc glioma cells [1]; radiance): no relative difference in tumor growth
survival time compared with vehicle-treated mice (Kaplan-Meier) (U87-luc glioma cells [1]): increased survival times; also recorded: survived a longer time
mice with tumor regrowth (U87-luc glioma cells [2]; Day 29): 2
mice dead (U87-luc glioma cells [2]; Day 29, group of 8 mice): 1
other mice with tumor regrown (U87-luc glioma cells [2]; Day 33): 4
mice dead (U87-luc glioma cells [2]; Day 33, group of 8 mice): 3
overall antitumor result (U87-luc glioma cells [2]; [12]): induces tumor regression and increases survival
mice with detectable tumor (U87-luc glioma cells [2]; at 21 days, group of 8 mice): 1
survival compared with vehicle (Kaplan-Meier) (U87-luc glioma cells [2]; result in words): survived longer
levels in the brain over time ([3]; from 4 h to 24 h, total brain tissue of tumor-bearing mice): remained almost same
plasma concentration relative to that in the brain [3, 13]: more than 200 fold
plasma concentration relative to the mean concentration in liver, heart, lung and kidney [3, 13]: more than 20 fold
time of highest drug concentration ([3]; plasma and other organs except brain, i.v. 24 mg/kg (~75% of the MTD)): 4 h
time to reach nearly 50% of its concentration ([3]; plasma and other tissues except the brain): 20 h
retention in tumor tissues relative to surrounding brain tissues [4]: 3- to 4 fold
accumulation in glioblastoma tumors [5]: accumulates in glioblastoma tumors
maximum tolerated dose (MTD) [6]: 32 mg/kg/inj
accumulation in brain tumor and normal brain tissue [7]: accumulates in the brain tumor but not in normal brain tissue

COc1cccc2c1C(=O)c1c(O)c3c(c(O)c1C2=O)C[C@@](O)(C(=O)CO)C[C@@H]3O[C@H]1C[C@H](N)[C@H](O)[C@H](C)O1 [doxorubicin, reference compound]
time after tumor implantation within which all animals died (U87-luc glioma cells [1]; group of 8 mice): ≤ 34 days
animals died (U87-luc glioma cells [1]; in 22 days, group of 8 mice): 2
difference in tumor growth between 8 days and 22 days within the group (U87-luc glioma cells [1]; radiance): a relative difference in tumor growth
survival time compared with vehicle-treated mice (Kaplan-Meier) (U87-luc glioma cells [1]): no difference in the survival time; also recorded: no difference in the survival curves
accumulation in glioblastoma tumors [5]: not doxorubicin accumulates
maximum tolerated dose (MTD) [6]: 8 mg/kg/inj
ability to cross the BBB [8]: lacks the ability to cross the BBB
free concentration in glioma tissues [8]: below effective levels
P-glycoprotein efflux pump substrate [9]: substrate of the P-glycoprotein efflux pumps
effect on glioblastoma growing in the brain [10]: no effect
effect on glioblastoma cell lines (Glioblastoma cell lines): driven to apoptosis following growth arrest
accumulation in brain tumor and normal brain tissue [7]: not found in any appreciable amount in either the tumor or normal brain
